Test results as given in US10154970B2, “Methods for immunomodulation of cancer and infectious disease therapy” (The Regents of the University of California, priority 2014, dated 2018).

Assays:
IL-2 = IL-2 mRNA expression in Jurkat cells by qRT-PCR, normalized with GAPDH; assay type: cell-based, human
Protocol: (§1) FIG. 1. Interferon gamma (IFN-γ) and interleukin (IL)-2 expression in human Jurkat cells following exposure to TRIP in vitro. Jurkat cells (2×10^6) were treated with different concentrations of TRIP as indicated for 24 hours. (A) IFN-γ and (B) IL-2 mRNA expression levels were detected by quantitative real-time polymerase chain reaction (qRT-PCR) and normalized with the expression of GAPDH. *p<0.05, **p<0.01, ***p<0.001.
(§2) FIG. 3. Effects of TRIP alone and in combination with trifluoperazine (TFP) or LY294002 (LY) on IFN-γ and IL-2 in human Jurkat cells in vitro. Jurkat cells (2×10^6) were pretreated with different concentrations of (A, B) TFP (0, 0.1, 1.0, 5.0, and 10.0 μM) and (C, D) LY294002 (0, 1, 5, 10, and 25 μM) for 1 hour, then incubated with medium containing 2.5 μM of TRIP for 24 hours. (A, C) IFN-γ and (B, D) IL-2 mRNA expression levels were detected by qRT-PCR and normalized with the expression of GAPDH. *p<0.05, **p<0.01, ***p<0.001.
(§3) FIG. 4. Effects of calmodulin, PI3K and MAPK inhibition on TRIP-induced expression of IFN-γ and IL-2 in human Jurkat cells in vitro. Jurkat cells (2×10^6) were pretreated with PD98059 (50 μM), TFP (10 μM) and LY294002 (25 μM) for 1 hour, then incubated with medium containing 2.5 μM of TRIP for 24 hours. (A) IFN-γ and (B) IL-2 mRNA expression levels were detected by qRT-PCR and normalized with the expression of GAPDH. **p<0.01, ***p<0.001, ****p<0.0001.
(§4) The potential immune regulating effects of TRIP and the possible mechanism(s) involved were determined with in vitro experiments examining the expression of T cell activating cytokines in human acute T cell leukemia Jurkat cells. The expression of IFN-γ and IL-2 RNA following exposure to increasing concentrations of TRIP (i.e., ospemifene) were first examined, followed by the effects of combining tamoxifen with TRIP on the expression of these cytokines. Different inhibitors of key T cell activation pathways—trifluoperazine (TFP), an inhibitor of calmodulin, LY294002, an inhibitor of PI3K, and PD98059, a MAPK inhibitor—in combination with TRIP were assessed for their effects on TRIP-induced expression of IFN-γ and IL-2 in Jurkat cells.
(§5) Jurkat cells (2.0×10^6) were treated with different concentrations of TRIP as indicated on the x-axis for 24 hours. (A) IFN-γ and (B) IL-2 mRNA expression levels were detected by quantitative real-time polymerase chain reaction (qRT-PCR) and normalized with the expression of GAPDH. *p<0.05, **p<0.01, ***p<0.001.
(§6) T cell activation requires multiple signals including PI3K, MAPK and calcium signaling pathways, and in order to identify the potential mechanism through which TRIP affects immune activation, Jurkat cells (2.0×10^6) were pretreated with different concentrations of TFP (0, 0.1, 1.0, 5.0 and 10.0 μM) (A, B) or LY294002 (0, 1, 5, 10 and 25 μM) (C, D) for one hour, then incubated with medium containing 2.5 μM TRIP for 24 hours. IFN-γ and IL-2 expression levels were detected by qRT-PCR and normalized with the expression of GAPDH. *p<0.05, **p<0.01, ***p<0.001.
(§7) Jurkat cells (2×10^6) were pretreated with PD98059 (50 μM), TFP (10 μM) or LY294002 (25 μM) for one hour, then incubated with medium containing 2.5 μM TRIP for 24 hours. (A) IFN-γ and (B) IL-2 mRNA expression levels were detected by qRT-PCR and normalized with expression of GAPDH. **p<0.01, ***p<0.001, ****p<0.0001.
The effects on T cell activation of different functional group substitutions on the TRIP chemical structure (Formula Ia) were examined by measuring the expression of IFN-γ and IL-2 RNA in human acute T cell leukemia Jurkat cells in vitro.
A strong increase is defined as a ≥50% increase compared to the control. A moderate increase is defined as a 25-49% increase compared to the control. A weak increase is defined as a 0-24% increase compared to the control. No effect is when there was no increase compared to the control.

IFN-γ [1] = test: IFN-γ mRNA expression in Jurkat cells by qRT-PCR, normalized with GAPDH; assay type: cell-based, human
Protocol: as §1
FIG. 2. Effect of tamoxifen on TRIP-induced expression of IFN-γ in vitro. Jurkat cells (2×10^6) were treated with TRIP (2.5 μM) and/or tamoxifen (2.5 μM) for 24 hours. The expression levels of IFN-γ were analyzed by qRT-PCR and normalized with GAPDH. **p<0.01, ***p<0.005.
as §2, §3, §4, §5
The expression levels of IFN-γ were analyzed by qRT-PCR and normalized with GAPDH. **p<0.01, ***p<0.001.
as §6, §7
The effects on T cell activation of different functional group substitutions on the TRIP chemical structure (Formula Ia) were examined by measuring the expression of IFN-γ and IL-2 RNA in human acute T cell leukemia Jurkat cells in vitro. […]

IFN-γ [2] = test: Experiment 5: serum IFN-γ cytokine analysis; assay type: in vivo, human MUC1.Tg C57BL/6 mice; conditions: TRIP 100 mg/kg or letrozole 0.8 mg/kg daily oral 14 days
Protocol: FIG. 13. Effects of TRIP on serum IFN-γ compared to estradiol and letrozole. Serum IFN-γ from untreated control, TRIP (100 mg/kg), estradiol (E2; 25 μg/kg), and letrozole (0.8 mg/kg) groups were analyzed following daily treatment for 14 days (n=8 all groups). **p<0.01, ***p<0.001.
TRIP and letrozole were prepared in DMSO and peanut oil as described above in Experiment 2 and administered daily for 14 days by oral gavage (100 μL). Estradiol was dissolved in 100% ethanol, diluted in PBS to achieve the desired concentration, and then administered daily for 14 days by s.c. injection at rotating sites using a 25-gauge needle. In Week 19, the study was terminated, 24 hours after the last treatments, and serum and spleens were collected for surface marker and Treg analyses.

[3] = test system: T-cell surface markers (CD4, CD8, PD-1, CD28); test: Experiment 5: T-cell surface markers of spleen lymphocytes by flow cytometry; assay type: in vivo, human MUC1.Tg C57BL/6 mice
Protocol: FIG. 11. Lymphocyte phenotypes following different hormonal treatments. (A) CD3+CD4+; (B) CD3+CD8+; (C) CD3+CD28+; (D) CD8+CD28+; (E) CD3+PD-1+; and (F) CD8+PD-1+; T cell surface markers were stained with indicated antibodies after […] of TRIP (100 mg/kg), estradiol (E2; 25 μg/kg), and letrozole (0.8 mg/kg) treatments (n=8 all groups).
(§8) A total of 32 female human MUC1.Tg C57BL/6 mice, starting at approximately six weeks of age, were treated with urethane as described (Wurz G T. et al., J. Transl. Med., 11:64 (2013)). Two weeks following the final dose of urethane (Week 17), the mice were randomized into four treatment groups of approximately equal average weight (n=8, all groups): Control (no treatment); TRIP (i.e., ospemifene) 100 mg/kg; estradiol 25 μg/kg; and letrozole 0.8 mg/kg. TRIP and letrozole were prepared in DMSO and peanut oil as described above in Experiment 2 and administered daily for 14 days by oral gavage (100 μL). Estradiol was dissolved in 100% ethanol, diluted in PBS to achieve the desired concentration, and then administered daily for 14 days by s.c. injection at rotating sites using a 25-gauge needle. In Week 19, the study was terminated, 24 hours after the last treatments, and serum and spleens were collected for surface marker and Treg analyses.
(§9) After two weeks of treatment, lymphocytes were isolated from spleen. T-cell surface markers (CD4, CD8, PD-1, CD28) and regulatory T cells (Tregs) were analyzed by flow cytometry.

[4] = test system: regulatory T cells (Tregs); test: Experiment 5: regulatory T cells (FoxP3+/CD4+) by flow cytometry; assay type: in vivo, human MUC1.Tg C57BL/6 mice; conditions: TRIP 100 mg/kg or letrozole 0.8 mg/kg daily oral 14 days
Protocol: as §8, §9

[5] = Jurkat cells pretreated 1 hour with PD98059 50 μM, TFP 10 μM or LY294002 25 μM, then 2.5 μM TRIP 24 hours (FIG. 4)
[6] = Jurkat cells pretreated 1 hour with TFP 0.1-10.0 μM or LY294002 1-25 μM, then 2.5 μM TRIP 24 hours (FIG. 3)
[7] = mRNA in Jurkat cells in vitro, relative to control sample without TRIP compound

## COc1cccc(-c2cc(=O)c3ccccc3o2)c1N [PD98059, reference compound]
IL-2; [5]
  TRIP-induced expression of IL-2: did not appear to affect
IFN-γ [1]; [5]
  TRIP-induced expression of IFN-γ: did not appear to affect

## CN1CCN(CCCN2c3ccccc3Sc3ccc(C(F)(F)F)cc32)CC1 [TFP, trifluoperazine, reference compound]
IL-2; [5]
  TRIP-induced expression of IL-2: significantly decreased
IL-2; [6]
  TRIP-induced expression of IL-2: significantly decreased
IFN-γ [1]; [5]
  TRIP-induced expression of IFN-γ: significantly decreased
IFN-γ [1]; [6]
  TRIP-induced expression of IFN-γ: significantly decreased

## OCCOCCOc1ccc(/C(=C(/CCCl)c2ccccc2)c2ccccc2)cc1 [Z-2-{2-[4-(4-chloro-1,2-diphenyl-but-1-enyl)-phenoxy]-ethoxy}-ethanol]
IL-2; [7]
  IL-2 Expression: +++ (strong increase)
IFN-γ [1]; [7]
  IFN-γ Expression: +++ (strong increase)

## N#Cc1ccc(C(c2ccc(C#N)cc2)n2cncn2)cc1 [letrozole, reference compound]
IFN-γ [2]
  serum IFN-γ concentrations compared to estradiol: significantly increased
[3]; TRIP 100 mg/kg or letrozole 0.8 mg/kg daily oral 14 days
  expression of surface markers, including CD8 and CD28, vs control: no difference
[3]; letrozole 0.8 mg/kg daily oral 14 days
  CD4+ T cell population: lower
[4]
  Tregs (FoxP3+/CD4+) compared to estradiol treatment: significantly inhibited

## CC/C(=C(\c1ccccc1)c1ccc(OCCN(C)C)cc1)c1ccccc1 [tamoxifen, reference compound]
IFN-γ [1]; Jurkat cells, single agent 2.5 μM, 24 hours (FIG. 2)
  expression of IFN-γ compared to control: no apparent effect
IFN-γ [1]; Jurkat cells, tamoxifen 2.5 μM with TRIP 2.5 μM, 24 hours
  effect on the T cell activating ability of TRIP (IFN-γ expression): does not affect
